From patent US12357626B2, “Anthranilic acid-based compound, and Pin1 inhibitor, therapeutic agent for inflammatory diseases and therapeutic agent for cancer that use the same” (Amenis Bioscience, Inc., priority 2017, dated 2025)

Key:
Pin1 = target: T1, Pin1 (Homo sapiens, UniProt Q13526); experiment: Cell-based evaluation of Pin1 inhibition activity with AMPK phosphorylation level as index (293T cells, Western blot); set-up: key: +++: a higher level of AMPK phosphorylation is promoted, as compared with C1; ++: a similar level of AMPK phosphorylation is promoted, as compared with C1; +: a lower level of AMPK phosphorylation is promoted, as compared with C1; −: no or almost no promotion is found in AMPK phosphorylation; details: compound at 100 μM, 30 minutes, then 10 mM 2-DG for one hour, pAMPK level compared with C1
T1 construct: endogenous in cells; host or cells: 293T cells
Method: To evaluate the inhibitory activity of each compound synthesized in Example 1 against the function of Pin1, a cell-based assay was performed according to the method previously developed by the inventors (Yusuke Nakatsu et al., Journal of Biological Chemistry, 2015, Vol. 290, No. 40, pp. 24255-24266), in which the phosphorylation level of AMPK (AMP-activated protein kinase), a protein whose phosphorylation is inhibited by Pin1, was examined as an index.
Briefly, 293T cells were plated on a collagen-coated 24-well plate. Forty-eight hours later, each compound synthesized in the preceding example (at 100 μM) was added to the plate, and the plate was left to stand in an incubator for 30 minutes. Subsequently, 10 mM 2-DG was added to the plate, and one hour later, each sample was collected with a buffer containing mercaptoethanol and SDS.
SDS-PAGE and blotting were performed, and blocking was then performed with 3% BSA for 1 hour, according to conventional protocols. Subsequently, a pAMPK antibody (Cell Signaling; diluted 1:2000 in Can Get Signal Solution 1, Toyobo) as a primary antibody, and an HRP-linked anti rabbit IgG (GE Healthcare; diluted 1:4000 in Can Get Signal Solution 2, Toyobo) as a secondary antibody were allowed to react at ambient temperature for 1 hour prior to detection.
The inhibitory activity against the function of Pin1 was evaluated by comparing the inhibition levels between each compound and a known Pin1 inhibitor, C1, as indicated below:
(+++): a higher level of AMPK phosphorylation is promoted, as compared with C1;
(++): a similar level of AMPK phosphorylation is promoted, as compared with C1;
(+): a lower level of AMPK phosphorylation is promoted, as compared with C1;
(−): no or almost no promotion is found in AMPK phosphorylation.

[1] = system: NASH mice (methionine-choline-deficient diet, MCDD); experiment: NASH treatment study in MCDD-fed NASH mice; type: in vivo, mice (C57BL/6J); details: NASH mice given MCDD for 8 weeks; intraperitoneal 2.5 mg/kg/day three times a week; FIG. 3
Method: Next, an animal experiment was performed on NASH mice that were produced by feeding a methionine-choline-deficient diet (MCDD).

[2] = system: non-alcoholic steatohepatitis (NASH) model mice (HFDT); details: intraperitoneal 2.5 mg/kg/day three times a week
Method: Animal experiments were performed using non-alcoholic steatohepatitis (NASH) model mice to test the compounds according to the present invention for the therapeutic effect on NASH.
NASH model mice (hereinafter referred to as “NASH mice”) were produced by feeding a high-fat diet containing trans fatty acids (HFDT) to individual male laboratory mice (C57BL/6J) for 8 weeks. The mice were divided into groups, and animal experiments were performed on a group of mice to which a compound according to the present invention (H-77) was administered intraperitoneally at a dose of 2.5 mg/kg/day three times a week, and a group of mice to which Juglone, a known Pin1 inhibitor, was administered intraperitoneally at a dose of 2.5 mg/kg/day three times a week, and a group of mice to which nothing was administered, during the 8-week HFDT feeding period. In addition, a normal diet was given to individual male laboratory mice (C57BL/6J) for 8 weeks to prepare control mice.

DU145 cells = experiment: Cancer treatment study in nude mice implanted with DU145 tumors; type: in vivo, nude mice (BALB/c-slc-nu/nu mice); details: intraperitoneal 2.5 mg/kg/day 5 times a week for 9 weeks, versus control mice
Method: An animal experiment was performed using mice transplanted with cancer cells to test the therapeutic effects of the compounds according to the present invention on cancer.
A first tumor (DU145 cells) with Matrigel plug was implanted in the middle of the upper back of nude mice (BALB/c-slc-nu/nu mice).
Five weeks after the first implantation, a second tumor (DU145 cells) was implanted in the middle of the left and right sides of the back of the nude mice.
Intraperitoneal administration of a compound according to the present invention, H-77, at a dose of 2.5 mg/kg/day and a frequency of 5 times a week was started 6 weeks after the first implantation, at which the first tumor became measurable (at this timing, the second tumor was so small in size and not measurable), and was continued for 9 weeks. No compound was administered to a group of mice to prepare control mice.
The volume of the second tumor was so small and not measurable at the beginning of administration of the compound. Therefore, the result from the second tumor is expressed in volume (mm^3), but not in ratio.

T1 sequence (Q13526 whole entry): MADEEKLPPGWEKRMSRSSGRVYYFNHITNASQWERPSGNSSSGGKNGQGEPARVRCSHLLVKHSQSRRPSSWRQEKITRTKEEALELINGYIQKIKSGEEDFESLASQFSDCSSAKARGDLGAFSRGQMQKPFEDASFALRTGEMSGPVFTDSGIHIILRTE

Structure (SMILES)	Pin1 inhibition activity (Pin1)	further results
COC(=O)c1cc(OCc2ccccc2)ccc1NC(=O)c1ccc2ccccc2c1 [Compound H-68]	+	
O=C(Nc1ccc(OCc2ccccc2)cc1C(=O)O)c1ccc2ccccc2c1 [Compound H-77]	+++	hepatic fibrosis (liver tissue sections with Azan staining) [1]: hepatic fibrosis was significantly inhibited; liver weight ([2]; NASH mice given HFDT for 8 weeks, FIG. 1 (A)): increase in liver weight was reduced; blood AST (GOT) concentration ([2]; NASH mice given HFDT for 8 weeks, FIG. 1 (B)): AST value was decreased; fat accumulation in liver tissue (microscopic observation of sections) ([2]; NASH mice given HFDT, FIG. 2): reduced fat accumulation; tumor volume ratio of the first tumor (DU145 cells; first DU145 tumor, FIG. 4 (A)): tumor size growth was suppressed; volume of the second tumor (DU145 cells; second DU145 tumor, FIG. 4 (B)): tumor size growth was suppressed
COC(=O)c1cc(OCc2ccc3ccccc3c2)ccc1NC(C)=O [Compound H-182]	++	
CC(=O)Nc1ccc(OCc2ccccc2)cc1C(=O)O [Compound H-296, reference compound]	−	
CC(=O)Nc1ccc(OCc2ccc3ccccc3c2)cc1C(=O)O [Compound H-297]	+++	
COC(=O)c1cc(OCc2ccc3ccccc3c2)ccc1N [Compound H-300]	+++	
O=C(O)c1cc(OCc2ccccc2)ccc1NS(=O)(=O)c1ccc2ccccc2c1 [Compound H-338]	+	
O=C(Nc1ccc(OCc2ccccc2)cc1C(=O)O)c1ccc2ccccc2n1 [Compound H-339]	+	
O=C(COc1ccc2ccccc2c1)Nc1ccc(OCc2ccccc2)cc1C(=O)O [Compound H-362]	+	
O=C(Nc1ccc(OCc2ccccc2)cc1C(=O)O)c1cccc(Oc2ccccc2)c1 [Compound H-363]	+	
O=C(O)c1cc(OCc2ccccc2)ccc1NC(=O)c1cccc2ccccc12 [Compound H-370]	+	
O=C(Nc1ccc(OCc2ccc3ccccc3c2)cc1C(=O)O)c1ccc2ccccc2c1 [Compound H-371]	+	
O=C(O)c1cc(OCc2ccc3ccccc3c2)ccc1NS(=O)(=O)c1ccc2ccccc2c1 [Compound H-376]	+	
Nc1ccc(OCc2ccc3ccccc3c2)cc1C(=O)O [Compound H-443]	+	
O=C1C=CC(=O)c2c(O)cccc21 [Juglone, reference compound]		death of the mice during the study ([2]; NASH mice given HFDT for 8 weeks): all dead within 8 weeks
